In patent US11213506B2, “Combination therapy for the treatment or prevention of tumours” (QBIOTICS PTY LTD, priority 2017, dated 2022):

Key:
B16-OVA cells = test: Lactate dehydrogenase (LDH) release assay; type: cell-based, mouse; conditions: 300 μM and 500 μM
Protocol: (§1) A431 (human epidermoid carcinoma), MM649 (human melanoma), B16-OVA (B16-F10 mouse melanoma cell line stably transfected with chicken ovalbumin), MM415 (human melanoma) and FaDu (human hypopharyngeal carcinoma) cells were cultured in RPMI-1640, 10% FCS (complete medium) at 37° C., 5% CO2 in a humidified incubator. All cell lines used in this study were confirmed as mycoplasma negative using MycoAlert (Lonza). STR profiling was also performed to confirm the identity of the human cell lines used.
Measuring the release of LDH is a well-recognised assay to assess plasma membrane permeabilisation and detect cell death by necrosis (Chan et al. 2013). Three cell lines (A431, MM649 and B16-OVA) were used in these assays. Cells were plated at a density of 10,000 cells per well into clear 96-well plates (Corning, #3595; 100 μl of complete media) and the resultant plates incubated overnight as previously detailed. The following day, media was aspirated from each well and 50 μl of fresh medium was inserted. Stock solutions of Compound 1 were diluted to 2× final assay concentrations (1 mM and 600 μM) and 50 μl of these dilutions added to the required wells. […] OD490 nm and OD690 nm readings were recorded for each sample using a Hybrid Synergy H4 plate reader. Absorbance readings from drug treated samples were normalized to detergent treated controls to determine the % LDH release per well.

MM649 cells [1] = test: Calreticulin externalization assay (flow cytometry); type: cell-based, human; conditions: within 60 minutes of treatment
Protocol: (§2) Calreticulin externalization was determined as previously detailed (Gomez-Cadena et al. 2016). Briefly, cells (A431, MM649, B16-OVA) cultured in complete medium at 37° C., 5% CO2 were detached via trypsinisation, centrifuged at 1,200 rpm and washed ×2 with fresh medium. After an additional round of centrifugation, the resultant cell pellet was resuspended at a concentration of 1×10^6 cells/ml, after which epoxytigliane was added to a final concentration of 500 or 300 μM. Ethanol only controls were also performed. Cell suspensions were incubated at 37° C., 5% CO2 and at the indicated timepoints, 200 μl of sample was removed and incubated with LIVE/DEAD fixable far red stain for 5 mins on ice. Following this, cells were pelleted at 1,200 rpm for 4 mins and washed ×1 with PBS. 500 μl of PBS, 0.25% formaldehyde was then added to each pellet to perform a light fixation without compromising plasma membrane integrity. […]
(§3) Samples were gated by FSC-H v FSC-A first to identify single cells, after which the LIVE/DEAD stain (Ex: 640 nm, Em: 670/14) negative (intact cell) population was analysed for green fluorescence (Ex: 488 nm, Em: 530/30; calreticulin externalization). Mean fluorescence intensity values were subsequently determined and graphed versus time.

A431 cells [2] = test: as above; type: cell-based, human; conditions: within 60 minutes of treatment
Protocol: as §2, §3

MM415 cells = test: IncuCyte cytotoxicity assay (propidium iodide); type: cell-based, human; conditions: 500 μM
Protocol: as §1
(§4) Four cancer cell lines (A431, MM649 (human melanoma), FaDu (HNSCC) and MM415 (human melanoma) were assessed for their response to epoxytigliane treatment. Cells were plated at a density of 10,000 cells per well (100 μl of complete media) into clear bottom black 96-well plates (Corning, #3603). Following 24 h incubation, the media within each well was aspirated and replaced with 50 μl of fresh media containing 1 μg/ml propidium iodide (PI). Stock solutions (20 mg/ml in ethanol) of four epoxytiglianes (Compounds 1, 2, 3 and 4) were diluted to 2× final assay concentration (1 mM) in identical media and inserted into a U-bottom 96 well plate in preparation for transfer. 50 μl of dilution was added to the required wells and the resultant plates inserted into an Essen Biosciences IncuCyte in preparation for imaging. Images were acquired at various time points (30 min, 1 h and at hourly intervals) for a total of 24 h.

MM649 cells [3] = test: IncuCyte cytotoxicity assay (propidium iodide); type: cell-based, human; conditions: 500 μM
Protocol: as §1, §4

FaDu cells = test: IncuCyte cytotoxicity assay (propidium iodide); type: cell-based, human; conditions: 500 μM
Protocol: as §1, §4

A431 cells [4] = test: IncuCyte cytotoxicity assay (propidium iodide); type: cell-based, human; conditions: 500 μM
Protocol: as §1, §4

[5] = after 120 minutes, majority of cells
[6] = differing extents and kinetics of onset

C/C=C(\C)C(=O)O[C@@H]1[C@@H](C)[C@@]2(O)[C@H]([C@@H]3C(C)(C)[C@]13OC(=O)[C@@H](C)CC)[C@@H]1O[C@]1(CO)[C@@H](O)[C@]1(O)C(=O)C(C)=C[C@H]12 [Compound 1, 12-tigloyl-13-(2-methylbutanoyl)-6,7-epoxy-4,5,9,12,13,20-hexahydroxy-1-tiglien-3-one]
LDH release compared to the controls (B16-OVA cells): significant release of LDH
calreticulin externalisation (mean fluorescence intensity) (MM649 cells [1]): significant increases in mean fluorescence intensity
calreticulin externalisation (mean fluorescence intensity) (A431 cells [2]): significant increases in mean fluorescence intensity
propidium iodide staining (loss of plasma membrane integrity) (MM415 cells; [5]): strong red staining
cell morphology (cytoplasmic swelling, blistering) (MM415 cells; [6]): significant cytoplasmic swelling and ‘blistering’
propidium iodide staining (loss of plasma membrane integrity) (MM649 cells [3]; [5]): strong red staining
cell morphology (cytoplasmic swelling, blistering) (MM649 cells [3]; [6]): significant cytoplasmic swelling and ‘blistering’
propidium iodide staining (loss of plasma membrane integrity) (FaDu cells; [5]): strong red staining
cell morphology (cytoplasmic swelling, blistering) (FaDu cells; [6]): significant cytoplasmic swelling and ‘blistering’
propidium iodide staining (loss of plasma membrane integrity) (A431 cells [4]; [5]): strong red staining
cell morphology (cytoplasmic swelling, blistering) (A431 cells [4]; [6]): significant cytoplasmic swelling and ‘blistering’
